Source: patent US8524481B2, “Hide processing methods and compositions” (priority 2010, dated 2013)
Where a name gives a salt, the structure may show the parent alone. Read-outs that look alike come from different tables or passages of the source. Square brackets hold non-standard residues; d marks the D form. Peptide text beside a SMILES is read from it. * marks the point of attachment. Sta = CC(C)C[C@H](N)[C@@H](O)CC(=O)O; Isovaleryl = CC(C)CC(=O)*

What was measured:
[1] = system: protease from strain SRC002 (MTCC 5564); experiment: Effect of inhibitors, metals and chemicals on protease activity; format: biochemical, Pseudomonas aeruginosa; settings: for effect on protease activity: EGTA 10 mM, 1,10 Phenanthrolin 2 mM, Phosphoramidone 500 μg/ml, Antipain 20 μM, Bestatin 50 μg/ml, Chymostatin 20 μM, E-64 2 μM, Pepstatin 1 μM, Ebelacetone-B 1 μM
[2] = system: Strain B/GZN (MTCC 5566); experiment: Antibiotic sensitivity by disk diffusion method, Strain B; format: cell-based, Pseudomonas aeruginosa; settings: Himedia antibiotic discs, Mueller Hinton Agar, 37° C. overnight
Method: (§1) The sensitivity of the strains against different antibiotics was determined by disk diffusion method using commercially available (Himedia) antibiotic discs. The representative of each group of antibiotic had been tested. The antibiotics used were Ampicillin (A10), Cephadroxil (Cq30), Chloramphenicol (C30), Cloxacillin (Cx30), Cephotaxime (Ce30), Ceftazidime (Ca30), Ciprofloxacin (Cf5), Doxycycline Hydrochloride (Do30), Gentamicin (G10), Metronidazole (Mt4), Neomycin (N30), Norfloxacin (Nx10), Polymyxin B (Pb100), Rifampicin (R15), Roxithromycin (Ro30), Tetracycline (T30), Trimethoprin (Tr30), Vancomycin (Va30). The concentrations of the antibiotics in microgram per disc were mentioned in parenthesis indicated above except for Polymyxin B where it is 100 units. Mueller Hinton Agar medium (Himedia-M173) was used to grow each of the microorganisms for antibiotic sensitivity test. The log phase culture of each isolate was diluted 100 times and poured on Mueller Hinton Agar (MHA) plates. It was swirled uniformly to distribute the culture throughout the plate. After waiting for 30 mins, the cultures were carefully pipetted out from the plates and the plates were allowed to dry. Then the antibiotic disks were placed onto the MHA surface using the dispenser provided with the antibiotic discs. The plates were incubated at 37° C. for overnight. The zones of inhibition were measured. The results were evaluated using National Committee for Clinical Laboratory Standard's (NCCLS) chart provided with the antibiotic discs by Himedia. The assay was repeated three times for each organism.

[3] = system: Strain A/SRC002 (MTCC 5564); experiment: Antibiotic sensitivity by disk diffusion method, Strain A; format: cell-based, Pseudomonas aeruginosa; settings: Himedia antibiotic discs, Mueller Hinton Agar, 37° C. overnight
Method: as §1

[4] = concentration not given, crude enzyme for the partial inhibitors

Q: How did the “effect on protease activity” value [1] turn out when c1cnc2c(c1)ccc1cccnc12 [1,10 Phenanthrolin] was run?
A: completely inhibited

Q: And the “effect on enzyme activity” value [1, 4]?
A: completely inhibited

Q: For [Ag] [Ag], which “enzyme activity retained in the presence of metal” value (from here on “enzyme activity retained”) ([1]; concentration not given) is on record?
A: 76%

Q: With [Al] [Al] as the molecule, how does the “enzyme activity retained” value ([1]; concentration not given) read?
A: 70%

Q: Which results are given for CC1(C)S[C@@H]2[C@H](NC(=O)[C@H](N)c3ccccc3)C(=O)N2[C@H]1C(=O)O [Ampicillin]?
A: antibiotic sensitivity (zones of inhibition evaluated by NCCLS chart) [2]: resistant; antibiotic sensitivity (zones of inhibition evaluated by NCCLS chart) [3]: resistant

Q: What does the source list for CC(C)C[C@H](NC(=O)[C@@H](O)[C@H](N)Cc1ccccc1)C(=O)O [Bestatin]?
A: effect on protease activity [1]: almost no effect; effect on enzyme activity [1, 4]: no inhibitory effect

Q: Which “enzyme activity retained” value ([1]; concentration not given) does the source give for [Cd] [Cd] here?
A: 34%

Q: Which “antibiotic sensitivity (zones of inhibition evaluated by NCCLS chart)” value [2] does the source give for CC(C)(O/N=C(\C(=O)N[C@@H]1C(=O)N2C(C(=O)[O-])=C(C[n+]3ccccc3)CS[C@H]12)c1csc(N)n1)C(=O)O [Ceftazidime] here?
A: intermediate response

Q: What about the “antibiotic sensitivity (zones of inhibition evaluated by NCCLS chart)” value [3] of the same molecule?
A: resistant

Q: With CC1=C(C(=O)O)N2C(=O)[C@@H](NC(=O)[C@H](N)c3ccc(O)cc3)[C@H]2SC1 [Cephadroxil] as the molecule, how does the “antibiotic sensitivity (zones of inhibition evaluated by NCCLS chart)” value [3] read?
A: resistant

Q: What does the source list for CO/N=C(\C(=O)N[C@@H]1C(=O)N2C(C(=O)O)=C(COC(C)=O)CS[C@H]12)c1csc(N)n1 [Cephotaxime]?
A: antibiotic sensitivity (zones of inhibition evaluated by NCCLS chart) [2]: intermediate response; antibiotic sensitivity (zones of inhibition evaluated by NCCLS chart) [3]: resistant

Q: What does the source list for CC(C)C[C@H](NC(=O)[C@@H](NC(=O)N[C@@H](Cc1ccccc1)C(=O)O)[C@@H]1CCN=C(N)N1)C(=O)N[C@H](C=O)Cc1ccccc1 [Chymostatin]?
A: effect on protease activity [1]: almost no effect; effect on enzyme activity [1, 4]: no inhibitory effect

Q: Which “antibiotic sensitivity (zones of inhibition evaluated by NCCLS chart)” value [2] does the source give for O=C(O)c1cn(C2CC2)c2cc(N3CCNCC3)c(F)cc2c1=O [Ciprofloxacin] here?
A: resistant

Q: And the “antibiotic sensitivity (zones of inhibition evaluated by NCCLS chart)” value [3]?
A: sensitive

Q: What does the source list for O=C(N[C@H](CO)[C@H](O)c1ccc([N+](=O)[O-])cc1)C(Cl)Cl [Cloramphenicol, Chloramphenicol]?
A: antibiotic sensitivity (zones of inhibition evaluated by NCCLS chart) [2]: intermediate response; antibiotic sensitivity (zones of inhibition evaluated by NCCLS chart) [3]: resistant

Q: Which “antibiotic sensitivity (zones of inhibition evaluated by NCCLS chart)” value [3] does the source give for Cc1onc(-c2ccccc2Cl)c1C(=O)N[C@@H]1C(=O)N2[C@@H]1SC(C)(C)[C@@H]2C(=O)O [Cloxacillin] here?
A: resistant

Q: For [Co] [Co], which “enzyme activity retained” value ([1]; concentration not given) is on record?
A: 82%

Q: [Cr] [Cr] was tested. Which “enzyme activity retained” value [1] did it give?
A: up to 90%

Q: [Cu] [Cu] was tested. Which “enzyme activity retained” value ([1]; concentration not given) did it give?
A: 50%

Q: For C[C@H]1c2cccc(O)c2C(=O)C2=C(O)[C@]3(O)C(=O)C(C(N)=O)=C(O)[C@@H](N(C)C)[C@@H]3[C@@H](O)[C@@H]21 [Doxycycline hydrochloride, Doxycycline Hydrochloride], which “antibiotic sensitivity (zones of inhibition evaluated by NCCLS chart)” value [2] is on record?
A: resistant

Q: And the “antibiotic sensitivity (zones of inhibition evaluated by NCCLS chart)” value [3]?
A: resistant

Q: With O=C(O)CN(CCN(CC(=O)O)CC(=O)O)CC(=O)O [EDTA] as the molecule, how does the “effect on enzyme activity” value [1] read?
A: inactivated

Q: Which “effect on protease activity” value [1] does the source give for O=C(O)CN(CCOCCOCCN(CC(=O)O)CC(=O)O)CC(=O)O [EGTA] here?
A: completely inhibited

Q: What about the “effect on enzyme activity” value [1, 4] of the same molecule?
A: completely inhibited

Q: What does the source list for CC[C@@H](C)[C@@H](O)[C@H](C)C(=O)[C@H](C)/C=C(\C)C[C@H](C)[C@@H]1OC(=O)[C@H]1CC [Ebelacetone-B]?
A: effect on protease activity [1]: almost no effect; effect on enzyme activity [1, 4]: no inhibitory effect

Q: With [Hg] [Hg] as the molecule, how does the “effect on enzyme activity” value [1, 4] read?
A: complete inhibition

Q: Which “antibiotic sensitivity (zones of inhibition evaluated by NCCLS chart)” value [3] does the source give for Cc1ncc([N+](=O)[O-])n1CCO [Metronidazole] here?
A: resistant

Q: Which “antibiotic sensitivity (zones of inhibition evaluated by NCCLS chart)” value [2] does the source give for NC[C@@H]1O[C@H](O[C@H]2[C@@H](O)[C@H](O[C@@H]3[C@@H](O)[C@H](N)C[C@H](N)[C@H]3O[C@H]3O[C@H](CN)[C@@H](O)[C@H](O)[C@H]3N)O[C@@H]2CO)[C@H](N)[C@@H](O)[C@@H]1O [Neomycine, Neomycin] here?
A: intermediate response

Q: And the “antibiotic sensitivity (zones of inhibition evaluated by NCCLS chart)” value [3]?
A: sensitive

Q: With [Ni] [Ni] as the molecule, how does the “enzyme activity retained” value ([1]; concentration not given) read?
A: 70%

Q: With CCn1cc(C(=O)O)c(=O)c2cc(F)c(N3CCNCC3)cc21 [Norfloxacine, Norfloxacin] as the molecule, how does the “antibiotic sensitivity (zones of inhibition evaluated by NCCLS chart)” value [2] read?
A: resistant

Q: What about the “antibiotic sensitivity (zones of inhibition evaluated by NCCLS chart)” value [3] of the same molecule?
A: sensitive

Q: [Pb] [Pb] was tested. Which “enzyme activity retained” value ([1]; concentration not given) did it give?
A: 50%

Q: How did the “effect on protease activity” value [1] turn out when CC(C)CC(=O)N[C@H](C(=O)N[C@H](C(=O)N[C@@H](CC(C)C)[C@@H](O)CC(=O)N[C@@H](C)C(=O)N[C@@H](CC(C)C)[C@@H](O)CC(=O)O)C(C)C)C(C)C [Pepstatin] (Isovaleryl-VV[Sta]A[Sta]-OH) was run?
A: almost no effect

Q: And the “effect on enzyme activity” value [1, 4]?
A: no inhibitory effect

Q: With CC(C)C[C@H](NP(=O)(O)O[C@@H]1O[C@@H](C)[C@H](O)[C@@H](O)[C@H]1O)C(=O)N[C@@H](Cc1c[nH]c2ccccc12)C(=O)O [Phosphoramidone] as the molecule, how does the “effect on protease activity” value [1] read?
A: completely inhibited

Q: What about the “effect on enzyme activity” value [1, 4] of the same molecule?
A: completely inhibited

Q: CC(C)C[C@H](NC(=O)[C@H]1O[C@@H]1C(=O)O)C(=O)NCCCCN=C(N)N [Strain E-64, E-64] was tested. Which “effect on protease activity” value [1] did it give?
A: almost no effect

Q: What about the “effect on enzyme activity” value [1, 4] of the same molecule?
A: no inhibitory effect

Q: What does the source list for CN(C)[C@@H]1C(=O)C(C(N)=O)=C(O)[C@@]2(O)C(=O)C3=C(O)c4c(O)cccc4[C@@](C)(O)[C@H]3C[C@@H]12 [Tetracyclin, Tetracycline]?
A: antibiotic sensitivity (zones of inhibition evaluated by NCCLS chart) [2]: resistant; antibiotic sensitivity (zones of inhibition evaluated by NCCLS chart) [3]: resistant

Q: With COc1cc(Cc2cnc(N)nc2N)cc(OC)c1OC [Trimethoprim] as the molecule, how does the “antibiotic sensitivity (zones of inhibition evaluated by NCCLS chart)” value [2] read?
A: intermediate response

Q: What about the “antibiotic sensitivity (zones of inhibition evaluated by NCCLS chart)” value [3] of the same molecule?
A: resistant

Q: How did the “antibiotic sensitivity (zones of inhibition evaluated by NCCLS chart)” value [2] turn out when CN[C@H](CC(C)C)C(=O)N[C@H]1C(=O)N[C@@H](CC(N)=O)C(=O)N[C@H]2C(=O)N[C@H]3C(=O)N[C@H](C(=O)N[C@H](C(=O)O)c4cc(O)cc(O)c4-c4cc3ccc4O)[C@H](O)c3ccc(c(Cl)c3)Oc3cc2cc(c3O[C@@H]2O[C@H](CO)[C@@H](O)[C@H](O)[C@H]2O[C@H]2C[C@](C)(N)[C@H](O)[C@H](C)O2)Oc2ccc(cc2Cl)[C@H]1O [Vancomycin] was run?
A: resistant

Q: And the “antibiotic sensitivity (zones of inhibition evaluated by NCCLS chart)” value [3]?
A: resistant

Q: How did the “enzyme activity retained” value ([1]; concentration not given) turn out when [Zn] [Zn] was run?
A: 34%

Q: OCCS [beta-merceptoethanol] was tested. Which “effect on enzyme activity” value [1, 4] did it give?
A: partially inhibited

Q: OO [hydrogen peroxide] was tested. Which “effect on enzyme activity” value [1, 4] did it give?
A: partially inhibited

Q: What does the source list for Gentamicin [Gentamycine]?
A: antibiotic sensitivity (zones of inhibition evaluated by NCCLS chart) [2]: sensitive; antibiotic sensitivity (zones of inhibition evaluated by NCCLS chart) [3]: resistant

Q: What does the source list for Polymyxin B [PolymyxinB]?
A: antibiotic sensitivity (zones of inhibition evaluated by NCCLS chart) [2]: resistant; antibiotic sensitivity (zones of inhibition evaluated by NCCLS chart) [3]: resistant

Q: Which “effect on enzyme activity” value [1, 4] does the source give for Triton X 100 here?
A: partially inhibited
